Measurements taken from patent US12653808B2, “Compounds for treating multiple myeloma” (Purdue Pharma L.P., priority 2018, dated 2026).
Where “and” joins values, the source holds several entries; their conditions need not be identical. Equal values may be shown once.

How the values were obtained:
[1] = system: patients with relapsed/refractory hematologic malignancies; test: Phase 1 dose escalation trial: safety, treatment-emergent adverse events, DLT/MTD (NCI CTCAE v4.03); assay type: in vivo, human; details: for recommended starting dose, relapse refractory multiple myeloma: 60 minutes infusion, day 1 and day 15 of 28-day cycle
Description: A phase 1 trial was carried out including a dose escalation study to investigate the safety, pharmacokinetic (PK) profiles and efficacy of tinostamustine (EDO-S101) in relapsed/refractory hematologic malignancies.
The patient had relapsed/refractory hematologic malignancies for which there are no available therapies.
The assessment of dose-limiting toxicities (DLTs) was based on cycle 1 events alone. Toxicities were assessed regarding type and severity using the National Cancer Institute (NCI) Common Terminology Criteria for Adverse Events (CTCAE) version 4.03, June 2010. Toxicity data were collected for all patients throughout their time on study. Infusion site reactions were assessed using the Phlebitis Scale developed by the Infusion Nurses Society (2011).
DLTs, which were at least possibly related to study drug, were defined as: • Any Grade 3 or 4 non-hematologic toxicity (excluding alopecia and easily correctable electrolyte abnormalities); • Nausea, vomiting or diarrhoea that persists beyond 10 days despite aggressive symptomatic treatment; • Grade 4 neutropenia or thrombocytopenia lasting for 7 days or more; • Any grade 2 or more toxicity, but persist for over 3 weeks; and • Any toxicity resulting in a delay of the next dose administration (cycle 2 day 1≥14).
To ensure patients' safety, the stopping rules were implemented to the dose escalation stage of the study.
(§1) Other safety assessments included physical examinations, Eastern Cooperative Oncology Group (ECOG) performance status determinations, electrocardiograms (ECGs), pregnancy testing for women of childbearing potential, documentation of treatment-emergent adverse events (TEAEs), clinical laboratory evaluations including haematology, blood chemistry and urinalysis, vital signs, and documentation of concomitant medication usage.
If there is no DLT observed in any of these subjects, the trial proceeds to enroll additional subjects into the next higher dose cohort. If one subject develops a DLT at a specific dose, an additional three subjects are enrolled into that same dose cohort.

multiple myeloma [2] = details: López-Iglesias et al, J Hematol Oncol 2017, 10, 127; cited from earlier work
[3] = system: patients with relapsed/refractory hematologic malignancies; test: Biochemistry: clinical chemistry abnormalities and TEAEs; assay type: in vivo, human
Source text: as §1

[4] = system: relapsed/refractory hematologic malignancies; test: Tumour assessment: response to treatment, all HM; assay type: in vivo, human; details: all 46 patients
Source text: (§2) Response to treatment included evaluation of overall response rate (patients with a CR plus patients with a PR), clinical benefit (CB) rate (patients with CR plus patients with PR plus patients with stable disease (SD)), progression free survival, and overall survival according to the relevant response criteria.

[5] = Compartmental population PK analysis of tinostamustine; assay type: in vivo, human; details: dose range 20 to 120 mg/m^2, infusion times 30 to 60 minutes
Description: A compartmental population PK analysis of tinostamustine was conducted to characterize its concentration-time profiles and its dependency on patient factors. For the analysis, the 24 hours plasma concentrations of tinostamustine at day one from 36 patients was used from whom the data was available. The concentration-time profiles were best described with a two-compartmental model with first order clearance from the central compartment.

[6] = system: patients with relapsed/refractory hematologic malignancies; test: Cardiac safety: electrocardiograms and cardiac disorders; assay type: in vivo, human
Source text: as §1

[7] = PK assessment: plasma concentrations of tinostamustine and metabolites M2 and M8, cycle 1 day one; assay type: in vivo, human
Description: Plasma samples were collected to determine the concentrations of tinostamustine and its metabolites (labelled M2 and M8) by a method fully validated according to the relevant guidelines. The PK profiles of tinostamustine in plasma were assessed in each patient in the escalation stage of the study, in cycle 1 only.
Patients of all cohorts and over all dose levels were sampled according to the following schedule: 0.5 hours prior to dose administration, and at 15, 30 and 45 minutes and 1, 1.25, 1.50, 2, 3, 8, 24, 48 and 72 hours from the start of tinostamustine infusion. Plasma samples were collected according to the Laboratory Manual for the determination of tinostamustine and metabolites M2 and M8 concentrations using a method fully validated according to the relevant guidelines.

[8] = system: lymphoma (Hodgkin and non-Hodgkin); test: Tumour assessment: response to treatment, patients with lymphoma; assay type: in vivo, human; details: 27 patients with lymphoma
Source text: as §2

multiple myeloma [9] = test: Tumour assessment: response to treatment, patients with multiple myeloma; assay type: in vivo, human; details: 19 patients with MM
Source text: as §2

[10] = all cohorts administered over 30 or 45 minutes
[11] = doses of 20 to 80 mg/m^2, 60 min cohorts
[12] = doses of 100 or 120 mg/m^2, 60 min cohorts

## Cn1c(CCCCCCC(=O)NO)nc2cc(N(CCCl)CCCl)ccc21 [tinostamustine]
[1]; 100 mg/m^2 over 60 minutes
  patients with Grade 3 and 4 thrombocytopenia in C2 and C3 leading to withdrawal: three patients
[1]; 120 mg/m^2, lymphoma cohort
  DLT: Thrombocytopenia
[1]; HM120/60 cohort patient, of all patients
  serious thrombocytopenia (grade 3), also led to study discontinuation: 2%
[1]; Patients (N = 46), number (percent)
  TEAE with outcome of death: 0 (0)
[1]; administered over 30 or 45 minutes
  leukopenia, incidence: 16%
[1]; administered over 60 minutes
  leukopenia, incidence: 27%
  thrombocytopenia, incidence: 58%
[1]; all 46 patients
  SAE dyspnea, hypersensitivity, osteomyelitis, pleural effusion, pneumonia, and thrombocytopenia (each): 2%
  SAE febrile neutropenia and sepsis (each): 2%
  all other TEAEs, incidence: < 20%
  discontinuation because of adverse events (AE): 29%
  grade 3/4 anemia, incidence: 22%
  grade 3/4 leukopenia/WBC decreased, incidence: 15% and 16%
  grade 3/4 lymphopenia, incidence: 8.6%
  grade 3/4 neutropenia/neutrophil count decreased, incidence: 29%
  grade 3/4 thrombocytopenia, incidence: 39% and 40%
  nausea, incidence: 29%
  other TEAEs leading to study drug discontinuation (anaphylactic reaction, febrile neutropenia, hypersensitivity, pleural effusion, pruritus; each): 2%
  patients with at least one TEAE considered study drug-related: 38 patients
[1]; all 46 patients, any grade
  anaemia, incidence: 39%
  leukopenia/WBC decreased, incidence: 21% and 22%
  neutropenia/neutrophil count decreased, incidence: 29% and 28%
  thrombocytopenia/platelet count decreased, incidence: 52%
[1]; [10]
  anaemia, incidence: 37%
  thrombocytopenia, incidence: 47%
[1]; baseline platelet count 100×10^9/L
  recommended starting dose, relapse refractory multiple myeloma: 50 mg/m^2
[1]; baseline platelet count >100×10^9/L
  recommended starting dose, relapse refractory multiple myeloma: 60 mg/m^2
[1]; doses of 20 to 80 mg/m^2
  grade 3 or 4 anaemia, incidence: 8%
[1]; [11]
  anaemia, incidence: 25%
  grade 3/4 thrombocytopenia, incidence: 8%
  leukopenia, incidence: 17%
  neutropenia, incidence: 25%
[1]; doses of 100 or 120 mg/m^2
  grade 3 or 4 anaemia, incidence: 36%
[1]; [12]
  anaemia, incidence: 64%
  grade 3/4 thrombocytopenia, incidence: 71%
  leukopenia, incidence: 36%
  neutropenia, incidence: 50%
[1]; lymphoma cohort, 120 mg/m^2 over 1 hour
  patients who experienced DLTs: Two out of six
[1]; shorter infusion times
  neutropenia, incidence: 16%
Multiple myeloma [2]
  activity in in vitro and in vivo models against multiple myeloma: potent activity
[3]; all patients
  C-reactive protein increased TEAE: 4%
  blood creatinine increased TEAE: 9%
  blood potassium decreased/hypokalemia TEAE: 11%
[3]; considered unrelated to study drug
  grade 3 hyperuricemia TEAE: 2%
[3]; patients with normal or grade 1 or 2 values at baseline
  treatment-emergent shift to grade 3 aspartate aminotransferase increased and grade 3 hypoalbuminemia (each): 2%
[4]
  best response PD: 41%
[5]
  dose linearity of PK: dose-linear
[6]; all patients
  treatment-emergent ECG abnormality indicated to be clinically significant: No patient
  treatment-emergent QTcF interval >500 msec: One patient
[6]; one subject, MM 80/45 cohort, discontinuation visit three weeks after only dose, screening QTcF 423 msec
  prolonged QTcF interval: 677 ms
[6]; overall
  cardiac disorder considered study drug-related (grade 1 palpitations): 2%
[7]; dose 60 mg/m^2, infusion time 30 minutes
  Cmax Mean (SD): 1724 (1416) ng/mL
[7]; dose 80 mg/m^2, infusion time 60 minutes
  AUC Mean (SD): 902 (653) h · ng/mL
[7]; dose 120 mg/m^2, infusion time 60 minutes
  AUC Mean (SD): 1638 (578) h · ng/mL
[8]
  best response PD: 37%
Multiple myeloma [9]
  best response PD: 47%
